Legend:
HT-29 cell line = experiment: Cell cytotoxicity, MTT assay; format: cell-based, human; conditions: Homo sapiens, HT-29; MTT, 24 h
hCA IX = hCA IX (Homo sapiens, UniProt Q16790); experiment: biochemical
MCF-7 cell line = experiment: Cell cytotoxicity, MTT assay; format: cell-based, human; conditions: Homo sapiens, MCF7, 24 h
PC-3 cell line = experiment: Cell cytotoxicity, MTT assay; format: cell-based; conditions: Homo sapiens, 24 h
HEK293T cell line = experiment: Cell cytotoxicity, MTT assay; format: cell-based; conditions: Homo sapiens, HEK-293T, 24 h, healthy cell line
CA XII = experiment: Western blotting of CA XII protein expression in MCF-7 cells; format: cell-based, human; conditions: western blot, hypoxia (200 μM CoCl2), 24 h, three doses
Method: (§1) CA IX and CA XII protein expressions were evaluated in treated and control HT-29 and MCF7 cells after hypoxia induction. Cells were seeded in a 6-well plate in DMEM/F12 (normoxic cells) or DMEM/F12 containing 200 μM CoCl2 (hypoxic and treated cells) in order to create hypoxia.[25] HT29 cells were treated with 14 (40, 10, and 1.25 μM), 23 (80, 20, and 1.25 μM), and 66 (80, 20, and 1.25 μM), and MCF7 cells were treated with 14 (40, 10, and 1.25 μM), 23 (80, 20, and 1.25 μM), and 63 (80, 20, and 1.25 μM) for 24 h at three different doses. After the treatment period, cells were washed with cold PBS and homogenized into Ripa cell lysis buffer (Santa Cruz, USA). Samples were prepared, electrophoresed, and transferred according to the literature.[25] The membranes were blocked in 5% fat-free milk (w/v) for 1 h at RT, incubated with the corresponding antibody at 4 °C overnight, and then incubated with the horseradish peroxidase (HRP)-labeled secondary antibody for 1 h at RT. The following antibodies were used: anti-CA IX (ab107257, Abcam), anti-CA XII (sc-374314, Santa Cruz), and anti-GAPDH (A19056, Abclonal). Finally, the membranes were stained with ECL reagents (LumiGLO, CST, USA), and then, imaging was performed with the Bio-Rad Chemidoc Imaging System. The bands were calculated with the Image Lab (Bio-Rad, USA) and analyzed with Graphpad Prism 9.00 (San Diego, CA, USA).

CA IX = experiment: Western blotting of CA IX protein expression in MCF-7 cells; format: cell-based, human; conditions: western blot, hypoxia (200 μM CoCl2), 24 h, three doses
Method: as §1

| Structure (SMILES) | IC50 (HT-29 cell line) [µM] | Ki (hCA IX) [µM] | melting point [°C] | IC50 (MCF-7 cell line) [µM] | IC50 (PC-3 cell line) [µM] | IC50 (HEK293T cell line) [µM] | CA XII expression in MCF-7 cells (CA XII) | CA IX expression in MCF-7 cells (CA IX) |
| --- | --- | --- | --- | --- | --- | --- | --- | --- |
| Cc1ccc(C(C)C)c(OCc2cn(CCCCCCCCCCOc3ccc4ccc(=O)oc4c3)nn2)c1 [Compound 18, 7-((10-(4-((2-Isopropyl-5-methylphenoxy)methyl)-1H-1,2,3-triazol-1-yl)decyl)oxy)-2H-chromen-2-one] | 41.5 ± 14.2 | 0.268 | 72 to 73 |  |  |  |  |  |
| Cc1ccc(C(C)C)c(OCc2cn(CCCCCCCCCCCCOc3ccc4ccc(=O)oc4c3)nn2)c1 [Compound 19, 7-((12-(4-((2-Isopropyl-5-methylphenoxy)methyl)-1H-1,2,3-triazol-1-yl)dodecyl)oxy)-2H-chromen-2-one] | 37.6 ± 11.7 | 0.0218 | 68 to 69 |  |  |  |  |  |
| Cc1ccc(C(C)C)cc1OCc1cn(CCCCCCCOc2ccc3ccc(=O)oc3c2)nn1 [Compound 24, 7-((7-(4-((5-Isopropyl-2-methylphenoxy)methyl)-1H-1,2,3-triazol-1-yl)heptyl)oxy)-2H-chromen-2-one] | 56.9 ± 18.2 | 0.0327 | 83 to 84 | > 200 | > 200 | 134 ± 60.4 |  |  |
| Cc1ccc(C(C)C)cc1OCc1cn(CCCCCCCCCOc2ccc3ccc(=O)oc3c2)nn1 [Compound 25, 7-((9-(4-((5-Isopropyl-2-methylphenoxy)methyl)-1H-1,2,3-triazol-1-yl)nonyl)oxy)-2H-chromen-2-one] | 47.6 ± 13.8 | 0.0897 | 69 to 70 |  |  |  |  |  |
| Cc1ccc(C(C)C)cc1OCc1cn(CCCCCCCCCCOc2ccc3ccc(=O)oc3c2)nn1 [Compound 26, 7-((10-(4-((5-Isopropyl-2-methylphenoxy)methyl)-1H-1,2,3-triazol-1-yl)decyl)oxy)-2H-chromen-2-one] | 40.8 ± 10.2 | 0.258 | 73 to 74 |  |  |  |  |  |
| Cc1ccc(C(C)C)cc1OCc1cn(CCCCCCCCCCCCOc2ccc3ccc(=O)oc3c2)nn1 [Compound 27, 7-((12-(4-((5-Isopropyl-2-methylphenoxy)methyl)-1H-1,2,3-triazol-1-yl)dodecyl)oxy)-2H-chromen-2-one] | 29.6 ± 6.47 | 0.0304 | 80 to 81 |  |  |  |  |  |
| C=CCc1ccc(OCc2cn(CCOc3ccc4ccc(=O)oc4c3)nn2)c(OC)c1 [Compound 28, 7-(2-(4-((4-Allyl-2-methoxyphenoxy)methyl)-1H-1,2,3-triazol-1-yl)ethoxy)-2H-chromen-2-one] | 25.8 ± 8.4 | 0.0319 | 118 to 119 |  |  |  |  |  |
| C=CCc1ccc(OCc2cn(CCCOc3ccc4ccc(=O)oc4c3)nn2)c(OC)c1 [Compound 29, 7-(3-(4-((4-Allyl-2-methoxyphenoxy)methyl)-1H-1,2,3-triazol-1-yl)propoxy)-2H-chromen-2-one] | 23.5 ± 7.22 |  | 88 to 89 | 20.6 ± 6.5 | 32.4 ± 9.16 | 34.1 ± 8.6 |  |  |
| C=CCc1ccc(OCc2cn(CCCCOc3ccc4ccc(=O)oc4c3)nn2)c(OC)c1 [Compound 30, 7-(4-(4-((4-Allyl-2-methoxyphenoxy)methyl)-1H-1,2,3-triazol-1-yl)butoxy)-2H-chromen-2-one] | 41.8 ± 13.5 |  | 73 to 74 | 51.2 ± 27 | 57.6 ± 23.9 | 26.8 ± 2.44 |  |  |
| C=CCc1ccc(OCc2cn(CCCCCCCOc3ccc4ccc(=O)oc4c3)nn2)c(OC)c1 [Compound 32, 7-((7-(4-((4-Allyl-2-methoxyphenoxy)methyl)-1H-1,2,3-triazol-1-yl)heptyl)oxy)-2H-chromen-2-one] | 16.3 ± 5.34 |  | 101 to 102 | > 200 | 36.7 ± 29 | 40.6 ± 13.7 |  |  |
| C=CCc1ccc(OCc2cn(CCCCCCCCCOc3ccc4ccc(=O)oc4c3)nn2)c(OC)c1 [Compound 33, 7-((9-(4-((4-Allyl-2-methoxyphenoxy)methyl)-1H-1,2,3-triazol-1-yl)nonyl)oxy)-2H-chromen-2-one] | 31.3 ± 10.9 | 0.189 | 83 to 84 |  |  |  |  |  |
| C=CCc1ccc(OCc2cn(CCCCCCCCCCOc3ccc4ccc(=O)oc4c3)nn2)c(OC)c1 [Compound 34, 7-((10-(4-((4-Allyl-2-methoxyphenoxy)methyl)-1H-1,2,3-triazol-1-yl)decyl)oxy)-2H-chromen-2-one] | 25.7 ± 8.15 | 0.0281 | 48 to 49 |  |  |  |  |  |
| C=CCc1ccc(OCc2cn(CCCCCCCCCCCCOc3ccc4ccc(=O)oc4c3)nn2)c(OC)c1 [Compound 35, 7-((12-(4-((4-Allyl-2-methoxyphenoxy)methyl)-1H-1,2,3-triazol-1-yl)dodecyl)oxy)-2H-chromen-2-one] | 23.2 ± 6.94 | 0.0299 | 72 to 74 |  |  |  |  |  |
| CC1CCC(C(C)C)C(OCc2cn(CCCOc3ccc4ccc(=O)oc4c3)nn2)C1 (centres unmarked) [Compound 37, 7-(3-(4-(((2-Isopropyl-5-methylcyclohexyl)oxy)methyl)-1H-1,2,3-triazol-1-yl)propoxy)-2H-chromen-2-one] | 39.9 ± 11.8 |  | 78 to 79 | 18.4 ± 3.81 | 29.1 ± 6.83 | 24.2 ± 3.2 |  |  |
| CC1CCC(C(C)C)C(OCc2cn(CCCCOc3ccc4ccc(=O)oc4c3)nn2)C1 (centres unmarked) [Compound 38, 7-(4-(4-(((2-Isopropyl-5-methylcyclohexyl)oxy)methyl)-1H-1,2,3-triazol-1-yl)butoxy)-2H-chromen-2-one] | 37.2 ± 11.6 | 0.3 | 75 to 76 |  |  |  |  |  |
| CC1CCC(C(C)C)C(OCc2cn(CCCCCCCCCCCCOc3ccc4ccc(=O)oc4c3)nn2)C1 (centres unmarked) [Compound 43, 7-((12-(4-(((2-Isopropyl-5-methylcyclohexyl)oxy)methyl)-1H-1,2,3-triazol-1-yl)dodecyl)oxy)-2H-chromen-2-one] | 27.2 ± 6.18 | 0.0025 | 59 to 60 | 77.2 ± 34.8 | 32.3 ± 9.99 | 50.6 ± 8.63 |  |  |
| Cc1ccc(C(C)C)cc1OCCCCOc1ccc2ccc(=O)oc2c1 [Compound 54, 7-(4-(5-Isopropyl-2-methylphenoxy)butoxy)-2H-chromen-2-one] | 59.8 ± 6.73 |  | 74 to 75 |  |  |  |  |  |
| Cc1ccc(C(C)C)cc1OCCCCCCCCCCOc1ccc2ccc(=O)oc2c1 [Compound 58, 7-((10-(5-Isopropyl-2-methylphenoxy)decyl)oxy)-2H-chromen-2-one] | > 200 |  | 50 to 51 |  |  |  |  |  |
| Cc1ccc(C(C)C)cc1OCCCCCCCCCCCCOc1ccc2ccc(=O)oc2c1 [Compound 59, 7-((12-(5-Isopropyl-2-methylphenoxy)dodecyl)oxy)-2H-chromen-2-one] | > 200 |  | 58 to 59 |  |  |  |  |  |
| C=CCc1ccc(OCCOc2ccc3ccc(=O)oc3c2)c(OC)c1 [Compound 60, 7-(2-(4-Allyl-2-methoxyphenoxy)ethoxy)-2H-chromen-2-one] | > 80 | 0.176 | 86 to 87 | 18.5 ± 3.59 | 31.5 ± 8.71 | > 80 |  |  |
| C=CCc1ccc(OCCCOc2ccc3ccc(=O)oc3c2)c(OC)c1 [Compound 61, 7-(3-(4-Allyl-2-methoxyphenoxy)propoxy)-2H-chromen-2-one] | > 80 |  | 70 to 71 |  |  |  |  |  |
| C=CCc1ccc(OCCCCCCOc2ccc3ccc(=O)oc3c2)c(OC)c1 [Compound 63, 7-((6-(4-Allyl-2-methoxyphenoxy)hexyl)oxy)-2H-chromen-2-one] | > 200 |  |  | 3.91 ± 2.16 | 36.4 ± 12.3 | 40.6 ± 12.1 | decreased | decreased |
| C=CCc1ccc(OCCCCCCCOc2ccc3ccc(=O)oc3c2)c(OC)c1 [Compound 64, 7-((7-(4-Allyl-2-methoxyphenoxy)heptyl)oxy)-2H-chromen-2-one] | > 80 |  | 62 to 63 |  |  |  |  |  |
| C=CCc1ccc(OCCCCCCCCCOc2ccc3ccc(=O)oc3c2)c(OC)c1 [Compound 65, 7-((9-(4-Allyl-2-methoxyphenoxy)nonyl)oxy)-2H-chromen-2-one] | 39.4 ± 7.1 |  | 56 to 57 |  |  |  |  |  |

Source: paper PMC9933483, “Tail-Approach-Based Design and Synthesis of Coumarin-Monoterpenes as Carbonic Anhydrase Inhibitors and Anticancer Agents” (ACS Omega, 2023)
